Measurements published in patent US7226937B2, “Methods for modulating phototoxicity” (Board of Regents on Behalf of the University of Arizona, priority 2002, dated 2007).

Key:
[1] = test system: HaCaT keratinocytes; test: Proliferation inhibition of HaCaT keratinocytes with or without light; type: cell-based; settings: for cell proliferation relative to a control (antiproliferative effect): 500 μM compound, HaCaT keratinocytes, no light or UVA 3.3 J/cm^2, 3 days after stimulation
Protocol: (§1) A series of experiments were carried out on HaCaT keratinocytes, and human CF3 fibroblasts. In these experiments, cell samples were contacted with 500 μM of pyridinoline, 500 μM of desmosine, which is an elastin constituent with a structure related to pyridinoline, or 500 μM of vitamin B6 (pyridoxine). Controls received no added compound. In one set of experiments, the cells received no external light source. In another set of experiments, they received UVA light, at 3.3 J/cm^2. The CF3 fibroblasts received solar simulated light, or “SSL,” which combines 2.3 J/cm^2 of UVA light, and 0.12 J/cm^2 of UVB light. Results are shown, in FIG. 2, in terms of percent of cell proliferation relative to a control (no added compound, no light). The measurements were taken 3 days after stimulation.
HaCaT cells, as described supra, were tested in a proliferation inhibition assay. Cell samples received equal amounts of one of the 4 compounds listed supra and were contacted with or without either solar simulated light (“SSL”) as described, supra, or UVA light alone, also as described supra.
The antiproliferative effect of the complexes described in example 4 were tested, by adding either nothing (control), BSA, or the BSA-B6 complexes, and treating or not treating samples of HaCaT keratinocytes with SSL. The BSA and BSA-B6 were added at 10 mg/ml, and the SSL was 2.3 J/cm^2 of UVA plus 0.12 J/cm^2 UVB. Three days after treatment, proliferation was measured using a Coulter counter, and standard methods.

[2] = test system: skin fibroblasts (CF3 cells); test: Cell protection against sensitized photodamage (TB plus visible light); type: cell-based, human; settings: test compound 10 mM, TB 3.3 μM, visible light 10.8 J/cm^2; for Cell Protection against Sensitized Photodamage: ± SD, n = 3, CF3 fibroblasts counted after 3 days; for protective effect against sensitized photodamage, in words: CF3 fibroblasts
Protocol: Cultured skin fibroblasts (CF3 cells) were exposed to photooxidative stress from ^1O2 which had formed, in situ, by dye sensitization.
In brief, 50,000 fibroblasts were seeded in a 35 mm culture dish, and then treated one day later with visible light (90 seconds exposure, providing 10.8 J/cm^2) in the presence or absence of TB (3.3 μM in Hanks buffered salt solution). Five minutes after treatment, cells were washed, with phosphate buffered saline. Test compound (10 mM) was present or absent in the culture during the radiation. After 3 days of cultivation, cells were harvested via trypsinization, and counted using a Coulter counter.
Protection was determined via the formula: […]

[3] = test system: ΦX174 plasmid; test: Suppression of AGE-sensitized DNA (plasmid) cleavage; type: biochemical; settings: for suppression of AGE-sensitized plasmid cleavage, in words: as in Table 1
Description: It is well known that ΦX174 plasmid is cleaved only by combined action of irradiation from solar simulated light, and AGE-pigment enriched protein, which acts as a UV sensitizer. AGE-BSA (“advanced glycation end product” modified bovine serum albumin), is a model for accumulation of endogenous skin sensitizers of the type described supra. Details of the assay showing this will be found in Wondrak, et al., Photochem. Photobiol. […] This assay was used in this example.
Plasmid cleavage was visualized by running samples on 1% agarose gels, and damage, i.e., formation of relaxed, open circular forms from closed circular forms (undamaged) were quantified via densitometry, which permitted assessment of the protective effect of a compound.
AGE-cleavage proceeds in the absence of oxygen, and cannot be suppressed fully via antioxidants. As such, if a compound suppresses plasmid cleavage it cannot be simply considered an antioxidant. In contrast, inhibition via quenching of the excited state, as described supra, must be presumed.
Using this assay, a series of proline related compounds and proline were tested. The structures of the compounds are set forth at FIG. 10. FIG. 11, sets forth the results of these experiments. […]

[4] = mixture of TB and L-Pro in PBS; visible light 36 J/cm^2
[5] = test system: human CF3 fibroblasts; test: Proliferation inhibition of CF3 fibroblasts with or without solar simulated light; type: cell-based; settings: 500 μM compound, no light or SSL (2.3 J/cm^2 UVA, 0.12 J/cm^2 UVB), 3 days after stimulation
Protocol: as §1

Compound: Oc1cccnc1 [3-hydroxypyridine]
- type of light in whose presence the compound functioned ([1]; HaCaT cells, SSL or UVA alone): functioned in the presence of UVB light as a cell proliferation inhibitor
- effect on HaCaT cells in proliferation inhibition assay, compared to controls ([1]; equal amounts of compound, with or without SSL or UVA light): inhibitory effect

Compound: O=C(O)[C@@H]1CC(O)CN1 (stereo partly drawn) [4-OH-L-Pro, 4-hydroxy-L-proline]
- Cell Protection against Sensitized Photodamage [2]: 7.3 ± 2.5%

Compound: COC(=O)[C@@H]1CC(O)CN1 (stereo partly drawn) [4-OH-L-Pro-OCH3, 4-OH-L-proline methyl ester]
- protective effect against sensitized photodamage, in words [2]: very clear protective effect
- Cell Protection against Sensitized Photodamage [2]: 71.0 ± 13.4%

Compound: CC(C)(S)[C@@H](N)C(=O)O [D-Penicillamine, D-penicillamine]
- % Inhibition (±SD) of AGE-sensitized DNA cleavage ([3]; 20 mM): 95.7 ± 0.7%
- suppression of AGE-sensitized plasmid cleavage, in words [3]: effective

Compound: C1CN2CCN1CC2 [DABCO]
- % Inhibition (±SD) of AGE-sensitized DNA cleavage ([3]; 20 mM): 32.9 ± 1.1%

Compound: CC(=O)N(O)CCCCCNC(=O)CCC(=O)N(O)CCCCCNC(=O)CCC(=O)N(O)CCCCCN [DFO]
- % Inhibition (±SD) of AGE-sensitized DNA cleavage ([3]; 1 mM): 51.3 ± 1.0%

Compound: N[C@@H](CCC(=O)N[C@@H](CS)C(=O)NCC(=O)O)C(=O)O [GSH, glutathione]
- % Inhibition (±SD) of AGE-sensitized DNA cleavage ([3]; 20 mM): 100.0 ± 0.0%
- suppression of AGE-sensitized plasmid cleavage, in words [3]: effective

Compound: N[C@@H](Cc1c[nH]cn1)C(=O)O [L-Histidine]
- % Inhibition (±SD) of AGE-sensitized DNA cleavage ([3]; 20 mM): 43.7 ± 0.4%

Compound: O=C(O)[C@@H]1CCCN1 [L-Pro, proline]
- change in HPLC peak, retention time or AUC after light exposure (inertness toward 1O2) [4]: No changes were observed
- Cell Protection against Sensitized Photodamage [2]: 6.2 ± 5.4%

Compound: COC(=O)[C@@H]1CCCN1 [L-Pro-OCH3]
- protective effect against sensitized photodamage, in words [2]: very clear protective effect
- Cell Protection against Sensitized Photodamage [2]: 83.8 ± 10.9%
- quenching of photosensitized DNA damage (plasmid cleavage) ([3]; test compound 100 mM, UVA 2.3 J/cm^2, AGE-BSA 10 mg/ml): most potent of the quenchers

Compound: OC[C@@H](O)[C@@H](O)[C@H](O)[C@H](O)CO [Mannitol]
- % Inhibition (±SD) of AGE-sensitized DNA cleavage ([3]; 20 mM): 47.5 ± 2.5%

Compound: CC(=O)N[C@@H](CS)C(=O)O [NAC, N-acetyl-L-cysteine]
- % Inhibition (±SD) of AGE-sensitized DNA cleavage ([3]; 20 mM): 99.4 ± 0.9%
- suppression of AGE-sensitized plasmid cleavage, in words [3]: effective

Compound: [N-]=[N+]=[N-].[Na+] [NaN3]
- % Inhibition (±SD) of AGE-sensitized DNA cleavage ([3]; 20 mM): 94.0 ± 0.5%
- suppression of AGE-sensitized plasmid cleavage, in words [3]: effective

Compound: Cc1ncc(CO)c(CO)c1O [Vitamin B6, pyridoxine]
- cell proliferation relative to a control (antiproliferative effect) [1]: dramatically more efficacy in inhibiting the cellular proliferation
- cell proliferation relative to a control (antiproliferative effect) [5]: dramatically more efficacy in inhibiting the cellular proliferation

Compound: N[C@@H](CC[C@@H](O)C[n+]1cc(O)c(C[C@H](N)C(=O)O)c(CC[C@H](N)C(=O)O)c1)C(=O)[O-] [pyridinoline]
- cell proliferation relative to a control (antiproliferative effect) [1]: antiproliferative effect, but only in the presence of light
- cell proliferation relative to a control (antiproliferative effect) [5]: antiproliferative effect, but only in the presence of light

Compound: Catalase
- effect of catalase on vitamin B6 sensitization ([1]; catalase added at 400 μ/ml, cell type not stated): absolutely no effect
- % Inhibition (±SD) of AGE-sensitized DNA cleavage ([3]; 400 u/mL): 57.5 ± 4.7%
